Experimental data reported in patent publication US20100222285A1, “METHOD OF CONTROLLING THE PROLIFERATION OF VASCULAR ENDOTHELIAL CELLS AND INHIBITING LUMEN FORMATION” (Rare Sugar Production Technical Research Laboratories, LLC, priority 2004, published 2010).
Entries after “also recorded” stand apart in the source; their conditions may differ. Where two headings read alike, the source gives them in different places.

Tests used:
[1] = test system: human endothelial cells and fibroblasts; experiment: Experiment of luminal formation: concurrent culture, CD31 staining, area of the lumen; format: cell-based; details: for effect on the luminal formation: Example 1, 0.1-20 mM, 10 days; for effect on the luminal formation of HUVEC: Example 2 (36 species), incubation for 10 days; for antagonism of the luminal formation inhibitory effect by D-glucose: co-existence of 20 mM D-glucose
Experimental: Using a concurrent culture system of human endothelial cells and fibroblasts planted on a 24-well plate (Kurabo Co., Osaka, Japan), the culture medium was replaced by culture media containing a variety of additives at the early stage of luminal formation. Every 3 days, the medium was exchanged with the additive; 10 day after incubation, the endothelial cell only was stained by using mouse anti-human CD31 antibody (Kurabo Co., Osaka, Japan), goat anti-mouse IgG AlkP Conjugate (Kurabo Co., Osaka, Japan), and BCPI (5-bromo-4-chloro-3-indolyl phosphate) (Kurabo Co., Osaka, Japan) to photograph. The visualized area of the lumen was measured by means of NIH image software.

[2] = test system: Human umbilical cord vascular endothelial cells (HUVEC); experiment: Experiment of growth: HUVEC cell number by WST-8 after 48 hrs; format: cell-based; details: for inhibition at 20000 µM: Homo sapiens, HUVEC, 20 mM, read-out: inhibition of growth to the control group; for antagonism of the growth inhibitory effect by D-glucose: co-existence of 20 mM D-glucose
Experimental: Human umbilical cord vascular endothelial cells (HUVEC) were purchased as primary cultured cells from KURABO (Kurabo Co., Osaka, Japan) and the cells up to P8 were used in experiments. The cells were inoculated on a 96-well plate at a rate of 3000 cells/well, and allowed to stand in Humedia EG2 (Kurabo) overnight (37° C., 5% CO2). Next morning, the medium was replaced by 90 μl of 2% FBS-containing Humedia EB2 (Kurabo), to which was then added 10 μl of additive, and after a lapse of 48 hrs the number of cells was counted. No medium was exchanged during this period. In counting, a tetrazolium salt WST-8 was added to each well (0.5 mM), and after 2 hrs the absorbance was measured at 450 nm. The tetrazolium salt added was reduced with an intracellular dehydrogenase to yield formazan depending on the number of cells in the well. In advance, the absorbance at 450 nm was confirmed to show a linearity within the range of 500 to 12000 cells in the well.

[3] = cited from earlier work; for Ald type (%): aldehyde structure; for Pira β (%): pyranose β-anomer; for Pira α (%): pyranose α-anomer; for Fra α (%): furanose α-anomer; for Fra β (%): furanose β-anomer
[4] = Example 2 (36 species), 48 hours

With `O=CC[C@@H](O)[C@@H](O)CO` [LDR, 2-deoxy-L-ribose] the “effect on the luminal formation” value [1] was “effect was confirmed”, the “effect on the luminal formation of HUVEC” value [1] was “inhibitory effect was observed; also recorded: strong action” and the inhibition at 1000 µM ([1]; Homo sapiens, 1 mM) was roughly 20%. For the same compound, the inhibition at 2500 µM ([1]; Homo sapiens, 2.5 mM) was greater than 95%, the “antagonism of the luminal formation inhibitory effect by D-glucose” value [1] was “no apparent effect” and the “inhibition of the acceleration of luminal formation by VEGF” value ([1]; with VEGF) was “inhibit the acceleration by VEGF”. For the same compound, the “effect on the growth of HUVEC” value ([2]; Example 1, 0.1-20 mM, 48 hrs) was “effect was confirmed”, the “effect on the growth of HUVEC” value [2, 4] was “inhibitory effect was observed” and the inhibition at 20000 µM ([2]; 48 hrs) was 40 to 80%. For the same compound, the “antagonism of the growth inhibitory effect by D-glucose” value [2] was “no antagonism”.

With `O=C(CO)[C@H](O)[C@H](O)[C@@H](O)CO` [LTA, L-tagatose] the “effect on the growth of HUVEC” value [2, 4] was “no remarkable effect”.

With `O=C(CO)[C@@H](O)[C@@H](O)[C@@H](O)CO` [LPS, L-psicose] the “effect on the growth of HUVEC” value [2, 4] was “no remarkable effect”.

For `O=C(CO)[C@H](O)[C@@H](O)[C@H](O)CO` [DSO, D-sorbose], the “effect on the growth of HUVEC” value [2, 4] was “no remarkable effect”.

With `O=C(CO)[C@@H](O)[C@H](O)[C@H](O)CO` [FRU, D-fructose] the “effect on the growth of HUVEC” value [2, 4] was “no remarkable effect”.

In the case of `O=C[C@@H](O)[C@H](O)[C@H](O)CO` [Arabinose], the “Ald type (%)” value [3] is given as 0.28%, the C1/1C ([3]; chair form of pyranose α) is given as 1C and the C1/1C ([3]; chair form of pyranose β) is given as “mix”. The “Fra α + Fra β total (%)” value ([3]; furanose, total of α and β) was “total 3%” and the “Pira β (%)” value [3] was 34%.

In the case of `O=C(CO)[C@@H](O)[C@H](O)[C@@H](O)CO` [SOR, L-sorbose], the “effect on the luminal formation” value [1] is reported as “no influence”, the “effect on the growth of HUVEC” value ([2]; Example 1, 0.1-20 mM, 48 hrs) is reported as “effect was confirmed; also recorded: inhibitory effect for growth” and the “effect on the growth of HUVEC” value [2, 4] is reported as “growth inhibition; also recorded: inhibitory effect was observed”. The inhibition at 20000 µM ([2]; 48 hrs) was 40 to 80% and the “antagonism of the growth inhibitory effect by D-glucose” value [2] was “no antagonism”.

In the case of `O=C(CO)[C@@H](O)[C@H](O)[C@H](O)CO` [Fructose], the C1/1C ([3]; chair form of pyranose α) is listed as “mix”, the C1/1C ([3]; chair form of pyranose β) is listed as 1C and the “Pira α (%)” value [3] is listed as 28%. For the same compound, the “Pira β (%)” value [3] was 72%.

In the case of `O=C[C@H](O)[C@@H](O)[C@H](O)CO` [Xylose], the “Ald type (%)” value [3] is listed as 0.17% and the “Pira β (%)” value [3] is listed as 63%.

In the case of `O=C[C@H](O)[C@@H](O)[C@@H](O)[C@H](O)CO` [Galactose], the “Ald type (%)” value [3] is given as 0.082%, the “Fra α (%)” value [3] is given as “trace” and the “Fra β (%)” value [3] is given as “trace”. For the same compound, the “Pira β (%)” value [3] was 64%.

For `O=C(CO)[C@H](O)[C@H](O)[C@H](O)CO` [Psicose], the C1/1C ([3]; chair form of pyranose β) is listed as 1C, the “Pira α (%)” value [3] is listed as 33% and the “Pira β (%)” value [3] is listed as 67%.

For `O=C[C@H](O)[C@H](O)[C@H](O)[C@H](O)CO` [Allose], the “Ald type (%)” value [3] is given as 1.38%, the “Fra α (%)” value [3] is given as 5% and the “Fra β (%)” value [3] is given as 7%. The “Pira β (%)” value [3] was 70%.

In the case of `O=C[C@@H](O)[C@@H](O)[C@@H](O)[C@@H](O)CO` [LAL, L-allose], the “effect on the luminal formation” value [1] is reported as “effect was confirmed”, the “effect on the luminal formation of HUVEC” value [1] is reported as “inhibitory effect was observed” and the inhibition at 20000 µM ([1]; Homo sapiens, 20 mM) is reported as 50 to 80%. The “antagonism of the luminal formation inhibitory effect by D-glucose” value [1] was “antagonized” and the “effect on the growth of HUVEC” value ([2]; Example 1, 0.1-20 mM, 48 hrs) was “no influence”.
